# Key:
# Test in all cases: Kinase Profiling (KINOMEscan)
# Type in all cases: binding
# [1] = molecular target: 456 kinases (of these 395 non-mutant kinases) (Homo sapiens, UniProt P52564); settings: MEK6; 10 μM
# [2] = molecular target: 456 kinases (of these 395 non-mutant kinases) (Homo sapiens, UniProt Q9HBY8); settings: SGK2; 10 μM
# [3] = molecular target: 456 kinases (of these 395 non-mutant kinases) (Homo sapiens, UniProt Q99759); settings: MAP3K3; 10 μM
# [4] = molecular target: 456 kinases (of these 395 non-mutant kinases) (Homo sapiens, UniProt P24941); settings: CDK2; 10 μM
# [5] = molecular target: 456 kinases (of these 395 non-mutant kinases) (Homo sapiens, UniProt Q9BYP7); settings: WNK3; 10 μM
# [6] = molecular target: 456 kinases (of these 395 non-mutant kinases) (Homo sapiens, UniProt O15075); settings: DCAMKL1; 10 μM
# [7] = molecular target: 456 kinases (of these 395 non-mutant kinases) (Homo sapiens, UniProt P49674); settings: CSNK1E; 10 μM
# [8] = molecular target: 456 kinases (of these 395 non-mutant kinases) (Homo sapiens, UniProt P00533, G719C); settings: EGFR(G719C); 10 μM
# [9] = molecular target: 456 kinases (of these 395 non-mutant kinases) (Homo sapiens, UniProt P36897); settings: TGFBR1; 10 μM
# [10] = molecular target: 456 kinases (of these 395 non-mutant kinases) (Homo sapiens, UniProt Q6PHR2); settings: ULK3; 10 μM
# [11] = molecular target: 456 kinases (of these 395 non-mutant kinases) (Homo sapiens, UniProt Q8WXR4); settings: MYO3B; 10 μM
# [12] = molecular target: 456 kinases (of these 395 non-mutant kinases) (Homo sapiens, UniProt Q14289); settings: PYK2; 10 μM
# [13] = molecular target: 456 kinases (of these 395 non-mutant kinases) (Homo sapiens, UniProt Q13188); settings: MST2; 10 μM
# [14] = molecular target: 456 kinases (of these 395 non-mutant kinases) (Homo sapiens, UniProt P36888, D835H); settings: FLT3(D835H); 10 μM
# [15] = molecular target: 456 kinases (of these 395 non-mutant kinases) (Homo sapiens, UniProt O14920); settings: IKK-beta; 10 μM
# [16] = molecular target: 456 kinases (of these 395 non-mutant kinases) (Homo sapiens, UniProt P42336, H1047L); settings: PIK3CA(H1047L); 10 μM
# [17] = molecular target: 456 kinases (of these 395 non-mutant kinases) (Homo sapiens, UniProt P42684); settings: ABL2; 10 μM
# [18] = molecular target: 456 kinases (of these 395 non-mutant kinases) (Homo sapiens, UniProt P00519); settings: 10 μM
# [19] = molecular target: 456 kinases (of these 395 non-mutant kinases) (Homo sapiens, UniProt O75676); settings: 10 μM
# [20] = molecular target: 456 kinases (of these 395 non-mutant kinases) (Homo sapiens, UniProt Q9UEW8); settings: STK39; 10 μM
# [21] = molecular target: 456 kinases (of these 395 non-mutant kinases) (Homo sapiens, UniProt Q9BYT3); settings: STK33; 10 μM
# [22] = molecular target: 456 kinases (of these 395 non-mutant kinases) (Homo sapiens, UniProt Q8N4C8); settings: MINK; 10 μM
# [23] = molecular target: 456 kinases (of these 395 non-mutant kinases) (Homo sapiens, UniProt Q16816); settings: PHKG1; 10 μM
# [24] = molecular target: 456 kinases (of these 395 non-mutant kinases) (Homo sapiens, UniProt Q13557); settings: CAMK2D; 10 μM
# [25] = molecular target: 456 kinases (of these 395 non-mutant kinases) (Homo sapiens, UniProt Q9UK32); settings: 10 μM
# [26] = molecular target: 456 kinases (of these 395 non-mutant kinases) (Homo sapiens, UniProt Q9UQB9); settings: AURKC; 10 μM
# [27] = molecular target: 456 kinases (of these 395 non-mutant kinases) (Homo sapiens, UniProt Q86Z02); settings: HIPK1; 10 μM
# [28] = molecular target: 456 kinases (of these 395 non-mutant kinases) (Homo sapiens, UniProt Q8NFD2); settings: ANKK1; 10 μM
# [29] = molecular target: 456 kinases (of these 395 non-mutant kinases) (Homo sapiens, UniProt P20794); settings: MAK; 10 μM
# [30] = molecular target: 456 kinases (of these 395 non-mutant kinases) (Homo sapiens, UniProt P08581, Y1235D); settings: MET(Y1235D); 10 μM
# [31] = molecular target: 456 kinases (of these 395 non-mutant kinases) (Homo sapiens, UniProt Q9UM73); settings: ALK; 10 μM
# Sequence of 456 kinases (of these 395 non-mutant kinases) (Homo sapiens, UniProt Q9UM73) (Q9UM73 19-1620 limits assumed, change not shown): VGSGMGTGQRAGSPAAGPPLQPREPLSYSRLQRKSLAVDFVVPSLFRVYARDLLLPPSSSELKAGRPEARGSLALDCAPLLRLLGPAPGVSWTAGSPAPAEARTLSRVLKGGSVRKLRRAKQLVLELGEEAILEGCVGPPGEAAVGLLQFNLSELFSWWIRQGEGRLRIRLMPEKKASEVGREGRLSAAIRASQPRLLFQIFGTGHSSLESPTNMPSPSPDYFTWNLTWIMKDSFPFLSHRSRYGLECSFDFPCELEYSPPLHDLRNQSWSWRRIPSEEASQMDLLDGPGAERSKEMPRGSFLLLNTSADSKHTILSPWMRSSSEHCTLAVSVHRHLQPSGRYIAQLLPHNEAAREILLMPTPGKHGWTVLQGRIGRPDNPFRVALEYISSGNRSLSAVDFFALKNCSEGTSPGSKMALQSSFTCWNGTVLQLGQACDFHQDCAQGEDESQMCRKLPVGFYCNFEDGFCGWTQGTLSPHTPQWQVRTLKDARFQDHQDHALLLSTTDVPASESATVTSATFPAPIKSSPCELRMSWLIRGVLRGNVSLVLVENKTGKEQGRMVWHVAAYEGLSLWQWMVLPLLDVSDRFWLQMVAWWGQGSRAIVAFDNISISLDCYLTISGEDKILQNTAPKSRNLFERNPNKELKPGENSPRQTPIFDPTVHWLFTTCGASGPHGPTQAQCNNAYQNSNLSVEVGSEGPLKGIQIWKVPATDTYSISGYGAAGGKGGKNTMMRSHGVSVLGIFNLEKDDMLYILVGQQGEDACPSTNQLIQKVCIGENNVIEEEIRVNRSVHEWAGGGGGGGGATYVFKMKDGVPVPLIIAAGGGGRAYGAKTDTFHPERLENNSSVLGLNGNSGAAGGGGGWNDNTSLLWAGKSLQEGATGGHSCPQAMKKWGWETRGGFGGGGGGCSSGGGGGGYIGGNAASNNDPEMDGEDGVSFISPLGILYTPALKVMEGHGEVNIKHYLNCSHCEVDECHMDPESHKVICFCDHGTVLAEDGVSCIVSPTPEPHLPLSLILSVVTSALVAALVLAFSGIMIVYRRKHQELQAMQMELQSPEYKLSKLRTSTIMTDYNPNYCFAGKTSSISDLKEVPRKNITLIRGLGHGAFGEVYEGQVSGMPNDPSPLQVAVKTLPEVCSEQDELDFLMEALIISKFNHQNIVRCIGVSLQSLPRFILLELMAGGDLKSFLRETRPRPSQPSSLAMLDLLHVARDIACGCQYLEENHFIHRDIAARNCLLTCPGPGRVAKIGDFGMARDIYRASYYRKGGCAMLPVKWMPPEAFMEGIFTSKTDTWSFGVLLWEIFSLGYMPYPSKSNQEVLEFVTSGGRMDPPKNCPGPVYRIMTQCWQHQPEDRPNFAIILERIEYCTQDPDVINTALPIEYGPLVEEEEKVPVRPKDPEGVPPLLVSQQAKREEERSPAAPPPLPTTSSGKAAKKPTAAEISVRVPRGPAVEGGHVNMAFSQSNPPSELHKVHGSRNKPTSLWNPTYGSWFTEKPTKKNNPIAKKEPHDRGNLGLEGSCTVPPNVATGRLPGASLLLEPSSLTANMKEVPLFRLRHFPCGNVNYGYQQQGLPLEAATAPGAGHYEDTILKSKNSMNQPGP
# Sequence of 456 kinases (of these 395 non-mutant kinases) (Homo sapiens, UniProt P36897) (P36897 34-503 limits assumed, change not shown): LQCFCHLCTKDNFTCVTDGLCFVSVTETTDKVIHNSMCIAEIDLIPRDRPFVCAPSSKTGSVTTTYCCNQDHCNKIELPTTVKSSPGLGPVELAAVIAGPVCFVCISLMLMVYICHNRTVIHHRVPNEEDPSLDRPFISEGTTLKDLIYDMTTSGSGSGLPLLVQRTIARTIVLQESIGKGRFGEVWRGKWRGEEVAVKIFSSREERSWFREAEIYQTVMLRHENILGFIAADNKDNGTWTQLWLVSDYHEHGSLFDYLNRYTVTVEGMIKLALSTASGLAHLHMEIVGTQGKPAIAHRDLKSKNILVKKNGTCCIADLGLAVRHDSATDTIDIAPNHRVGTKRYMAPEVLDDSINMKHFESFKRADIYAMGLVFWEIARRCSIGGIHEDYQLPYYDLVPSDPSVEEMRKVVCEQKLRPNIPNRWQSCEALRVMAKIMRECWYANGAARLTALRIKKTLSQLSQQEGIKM
# Sequence of 456 kinases (of these 395 non-mutant kinases) (Homo sapiens, UniProt Q13557) (Q13557 2-499 limits assumed, change not shown): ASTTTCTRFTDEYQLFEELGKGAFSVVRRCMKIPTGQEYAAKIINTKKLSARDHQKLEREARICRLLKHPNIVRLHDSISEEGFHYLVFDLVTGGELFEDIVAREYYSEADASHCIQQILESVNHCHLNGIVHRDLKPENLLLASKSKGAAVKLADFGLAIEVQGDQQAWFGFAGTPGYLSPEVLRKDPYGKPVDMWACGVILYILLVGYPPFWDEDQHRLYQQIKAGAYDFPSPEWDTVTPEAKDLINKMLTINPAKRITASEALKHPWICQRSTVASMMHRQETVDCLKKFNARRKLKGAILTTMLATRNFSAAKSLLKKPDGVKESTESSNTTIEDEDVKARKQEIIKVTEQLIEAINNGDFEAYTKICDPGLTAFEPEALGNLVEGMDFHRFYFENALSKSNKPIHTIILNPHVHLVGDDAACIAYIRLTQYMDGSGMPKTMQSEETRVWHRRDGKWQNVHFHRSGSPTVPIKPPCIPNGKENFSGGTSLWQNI
# Sequence of 456 kinases (of these 395 non-mutant kinases) (Homo sapiens, UniProt P42684) (P42684 2-1182 limits assumed, change not shown): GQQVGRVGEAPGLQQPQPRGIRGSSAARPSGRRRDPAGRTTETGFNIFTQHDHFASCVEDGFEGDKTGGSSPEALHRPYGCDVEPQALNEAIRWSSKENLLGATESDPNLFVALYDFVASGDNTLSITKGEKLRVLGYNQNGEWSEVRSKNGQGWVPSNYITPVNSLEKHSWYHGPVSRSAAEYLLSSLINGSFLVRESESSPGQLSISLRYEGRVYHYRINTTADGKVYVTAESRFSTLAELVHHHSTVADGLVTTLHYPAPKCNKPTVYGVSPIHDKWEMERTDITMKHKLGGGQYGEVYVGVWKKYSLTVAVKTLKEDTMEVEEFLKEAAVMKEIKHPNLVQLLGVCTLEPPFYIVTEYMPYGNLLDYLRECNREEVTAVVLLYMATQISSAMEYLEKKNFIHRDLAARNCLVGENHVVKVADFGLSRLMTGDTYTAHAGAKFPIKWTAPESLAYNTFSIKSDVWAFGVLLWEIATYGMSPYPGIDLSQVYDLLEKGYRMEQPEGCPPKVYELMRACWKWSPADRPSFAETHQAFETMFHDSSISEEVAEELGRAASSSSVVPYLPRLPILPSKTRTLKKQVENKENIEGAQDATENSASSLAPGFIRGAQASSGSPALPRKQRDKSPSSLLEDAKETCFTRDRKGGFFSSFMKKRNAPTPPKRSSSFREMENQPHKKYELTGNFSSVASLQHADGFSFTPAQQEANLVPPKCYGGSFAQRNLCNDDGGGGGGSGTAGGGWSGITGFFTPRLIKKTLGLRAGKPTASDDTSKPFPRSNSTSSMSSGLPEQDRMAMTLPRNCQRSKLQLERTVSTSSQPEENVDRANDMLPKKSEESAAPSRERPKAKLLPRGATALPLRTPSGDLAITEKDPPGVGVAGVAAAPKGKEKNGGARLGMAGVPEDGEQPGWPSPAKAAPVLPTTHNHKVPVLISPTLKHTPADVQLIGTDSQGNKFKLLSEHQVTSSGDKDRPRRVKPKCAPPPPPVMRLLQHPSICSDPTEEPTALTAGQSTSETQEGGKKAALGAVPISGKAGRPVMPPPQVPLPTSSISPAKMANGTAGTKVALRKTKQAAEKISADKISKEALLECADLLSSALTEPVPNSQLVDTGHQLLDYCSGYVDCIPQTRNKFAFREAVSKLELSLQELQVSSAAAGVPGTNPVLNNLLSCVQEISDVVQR
smiles,measurement,setting,value
"CCc1ccccc1NC(=O)c1c(C)nsc1Nc1cnc2cc(F)ccc2n1 [Example 20, N-(2-Ethylphenyl)-5-[(6-fluoroquinoxalin-2-yl)amino]-3-methyl-1,2-thiazole-4-carboxamide]",% Ctrl @ 10 μM,[1],95 % Ctrl
same,% Ctrl @ 10 μM,[2],100 % Ctrl
same,% Ctrl @ 10 μM,[3],100 % Ctrl
same,% Ctrl @ 10 μM,[4],100 % Ctrl
same,% Ctrl @ 10 μM,[5],100 % Ctrl
same,% Ctrl @ 10 μM,[6],92 % Ctrl
same,% Ctrl @ 10 μM,[7],74 % Ctrl
same,% Ctrl @ 10 μM,[8],95 % Ctrl
same,% Ctrl @ 10 μM,[9],100 % Ctrl
same,% Ctrl @ 10 μM,[10],100 % Ctrl
same,% Ctrl @ 10 μM,[11],100 % Ctrl
same,% Ctrl @ 10 μM,[12],100 % Ctrl
same,% Ctrl @ 10 μM,[13],100 % Ctrl
same,% Ctrl @ 10 μM,[14],83 % Ctrl
same,% Ctrl @ 10 μM,[15],90 % Ctrl
same,% Ctrl @ 10 μM,[16],56 % Ctrl
same,% Ctrl @ 10 μM,[17],100 % Ctrl
same,% Ctrl @ 10 μM,[18]; ABL1-nonphosphorylated,100 % Ctrl
same,% Ctrl @ 10 μM,[18]; ABL1-phosphorylated,100 % Ctrl
same,% Ctrl @ 10 μM,[19]; RPS6KA4(Kin.Dom.1-N-terminal),93 % Ctrl
same,% Ctrl @ 10 μM,[19]; RPS6KA4(Kin.Dom.2-C-terminal),88 % Ctrl
same,% Ctrl @ 10 μM,[20],100 % Ctrl
same,% Ctrl @ 10 μM,[21],100 % Ctrl
same,% Ctrl @ 10 μM,[22],100 % Ctrl
same,% Ctrl @ 10 μM,[23],70 % Ctrl
same,% Ctrl @ 10 μM,[24],89 % Ctrl
same,% Ctrl @ 10 μM,[25]; RSK4(Kin.Dom.1-N-terminal),100 % Ctrl
same,% Ctrl @ 10 μM,[25]; RSK4(Kin.Dom.2-C-terminal),75 % Ctrl
same,% Ctrl @ 10 μM,[26],73 % Ctrl
same,% Ctrl @ 10 μM,[27],100 % Ctrl
same,% Ctrl @ 10 μM,[28],100 % Ctrl
same,% Ctrl @ 10 μM,[29],100 % Ctrl
same,% Ctrl @ 10 μM,[30],77 % Ctrl
same,% Ctrl @ 10 μM,[31],77 % Ctrl

# Reference: patent US9682995B2, “Amino-substituted isothiazoles” (BAYER PHARMA AKTIENGESELLSCHAFT, priority 2013, dated 2017)
